{
  "source": "ChEMBL document CHEMBL4373714",
  "about": "“Absolute Configuration and Biological Activities of Meroterpenoids from an Endophytic Fungus of Lycium barbarum” (J Nat Prod, 2019)",
  "key": {"[1]": {"tested_on": "NCI-H226", "experiment": "Antiproliferative activity against human NCI-H226 cells assessed as reduction in cell viability at 10 uM after 24 hrs by CCK8 assay relative to control", "type": "functional", "conditions": "NCI-H226, 24 h"}, "[2]": {"tested_on": "MDA-MB-231", "experiment": "Antiproliferative activity against human MDA-MB-231 cells assessed as reduction in cell viability at 10 uM after 24 hrs by CCK8 assay relative to control", "type": "functional", "conditions": "MDA-MB-231, 24 h"}, "[3]": {"tested_on": "NCI-H226", "experiment": "Antiproliferative activity against human NCI-H226 cells assessed as reduction in cell viability after 24 hrs by CCK8 assay", "type": "functional, cell-based", "conditions": "NCI-H226, 24 h"}, "[4]": {"tested_on": "MDA-MB-231", "experiment": "Antiproliferative activity against human MDA-MB-231 cells assessed as reduction in cell viability after 24 hrs by CCK8 assay", "type": "functional, cell-based", "conditions": "MDA-MB-231, 24 h"}, "[5]": {"tested_on": "Bacillus subtilis", "experiment": "Antibacterial activity against Bacillus subtilis assessed as inhibition of bacterial growth after 24 hrs by microdilution method", "type": "functional"}, "[6]": {"tested_on": "Clostridium perfringens", "experiment": "Antibacterial activity against Clostridium perfringens assessed as inhibition of bacterial growth after 24 hrs by microdilution method", "type": "functional"}, "[7]": {"tested_on": "Pseudomonas viridiflava", "experiment": "Antibacterial activity against Pseudomonas viridiflava assessed as inhibition of bacterial growth after 24 hrs by microdilution method", "type": "functional"}, "[8]": {"tested_on": "Escherichia coli", "experiment": "Antibacterial activity against Escherichia coli assessed as inhibition of bacterial growth after 24 hrs by microdilution method", "type": "functional"}, "[9]": {"tested_on": "Staphylococcus aureus", "experiment": "Antibacterial activity against Staphylococcus aureus assessed as inhibition of bacterial growth after 24 hrs by microdilution method", "type": "functional"}},
  "note": "Where a name gives a salt, the structure may show the parent alone.",
  "data": [
    {"smiles": "CC[C@H](C)C(=O)[C@@H](C)C1=C(OC)C(=O)C2=C(O[C@]3(C)CC[C@H]4O[C@@H](C(C)(C)O)CC[C@]4(C)[C@H]3C2)C1=O", "values": [
      {"measurement": "inhibition at 10 µM", "setting": "[1]", "result": "< 50", "unit": "%"},
      {"measurement": "inhibition at 10 µM", "setting": "[2]", "result": "< 50", "unit": "%"}
    ]},
    {"smiles": "CC[C@H](C)C(=O)[C@@H](C)C1=C(OC)C(=O)C2=C(O[C@]3(C)CC[C@H]4O[C@@H](C(C)(C)O)CC[C@]4(C)[C@H]3[C@@H]2O)C1=O", "values": [
      {"measurement": "IC50", "setting": "[3]", "result": "> 10", "unit": "µM"},
      {"measurement": "IC50", "setting": "[4]", "result": 9.5, "unit": "µM"}
    ]},
    {"smiles": "C/C=C(\\C)C(=O)[C@@H](C)c1cc(O)c2c(c1O)O[C@]1(C)CC[C@H]3O[C@@H](C(C)(C)O)CC[C@]3(C)[C@H]1[C@@H]2O", "values": [
      {"measurement": "IC50", "setting": "[3]", "result": 5.5, "unit": "µM"},
      {"measurement": "IC50", "setting": "[4]", "result": 6.7, "unit": "µM"}
    ]},
    {"smiles": "CC[C@H](C)C(=O)[C@@H](C)c1cc(O)c2c(c1O)O[C@]1(C)CC[C@H]3O[C@@H](C(C)(C)O)CC[C@]3(C)[C@H]1[C@@H]2O", "values": [
      {"measurement": "inhibition at 10 µM", "setting": "[1]", "result": "< 50", "unit": "%"},
      {"measurement": "inhibition at 10 µM", "setting": "[2]", "result": "< 50", "unit": "%"}
    ]},
    {"smiles": "CC[C@@H](C)C(=O)[C@@H](C)c1cc(O)c2c(c1O)O[C@]1(C)CC[C@H]3O[C@@H](C(C)(C)O)CC[C@]3(C)[C@H]1C2=O", "values": [
      {"measurement": "inhibition at 10 µM", "setting": "[1]", "result": "< 50", "unit": "%"},
      {"measurement": "inhibition at 10 µM", "setting": "[2]", "result": "< 50", "unit": "%"}
    ]},
    {"smiles": "C/C=C(\\C)[C@@H](OC(C)=O)[C@@H](C)C1=CC(=O)C2=C(O[C@]3(C)CC[C@H]4O[C@@H](C(C)(C)O)CC[C@]4(C)C3=C2)C1=O", "values": [
      {"measurement": "IC50", "setting": "[3]", "result": "> 10", "unit": "µM"},
      {"measurement": "IC50", "setting": "[4]", "result": 5.6, "unit": "µM"}
    ]},
    {"smiles": "CCC(C)C(=O)c1coc2c3c(c(O)cc12)[C@@H](O)[C@@H]1[C@@]2(C)CC[C@H](C(C)(C)O)O[C@@H]2CC[C@@]1(C)O3", "note": "(stereo not given in full)", "values": [
      {"measurement": "inhibition at 10 µM", "setting": "[1]", "result": "< 50", "unit": "%"},
      {"measurement": "inhibition at 10 µM", "setting": "[2]", "result": "< 50", "unit": "%"}
    ]},
    {"smiles": "CC[C@@H](C)[C@@H](OC(C)=O)[C@@H](C)c1cc(O)c2c(c1O)O[C@]1(C)CC[C@H]3O[C@@H](C(C)(C)O)CC[C@]3(C)[C@H]1C2=O", "values": [
      {"measurement": "inhibition at 10 µM", "setting": "[1]", "result": "< 50", "unit": "%"},
      {"measurement": "inhibition at 10 µM", "setting": "[2]", "result": "< 50", "unit": "%"}
    ]},
    {"smiles": "C/C=C(\\C)C(=O)[C@@H](C)C1=C(OC)C(=O)C2=C(O[C@]3(C)CC[C@H]4O[C@@H](C(C)(C)O)CC[C@]4(C)[C@H]3[C@@H]2O)C1=O", "values": [
      {"measurement": "IC50", "setting": "[3]", "result": "> 10", "unit": "µM"},
      {"measurement": "IC50", "setting": "[4]", "result": 7.5, "unit": "µM"}
    ]},
    {"smiles": "CC[C@H](C)[C@@H](OC(C)=O)[C@@H](C)C1=C(N)C(=O)C2=C(O[C@]3(C)CC[C@H]4O[C@@H](C(C)(C)O)CC[C@]4(C)[C@H]3[C@@H]2O)C1=O", "values": [
      {"measurement": "inhibition at 10 µM", "setting": "[1]", "result": "< 50", "unit": "%"},
      {"measurement": "inhibition at 10 µM", "setting": "[2]", "result": "< 50", "unit": "%"}
    ]},
    {"smiles": "C/C=C(\\C)C(=O)[C@@H](C)C1=CC(=O)C2=C(O[C@]3(C)CC[C@H]4O[C@@H](C(C)(C)O)CC[C@]4(C)[C@H]3[C@@H]2O)C1=O", "values": [
      {"measurement": "IC50", "setting": "[3]", "result": "> 10", "unit": "µM"},
      {"measurement": "IC50", "setting": "[4]", "result": 8.5, "unit": "µM"}
    ]},
    {"smiles": "CC[C@H](C)[C@@H](OC(C)=O)[C@@H](C)C1=CC(=O)C2=C(O[C@]3(C)CC[C@H]4O[C@@H](C(C)(C)O)CC[C@]4(C)[C@H]3[C@@H]2O)C1=O", "note": "[COCHLIOQUINONE A]", "values": [
      {"measurement": "inhibition at 10 µM", "setting": "[1]", "result": "< 50", "unit": "%"},
      {"measurement": "inhibition at 10 µM", "setting": "[2]", "result": "< 50", "unit": "%"}
    ]},
    {"smiles": "CC[C@H](C)C(=O)[C@@H](C)C1=CC(=O)C2=C(O[C@]3(C)CC[C@H]4O[C@@H](C(C)(C)O)CC[C@]4(C)[C@H]3C2)C1=O", "note": "[COCHLIOQUINONE B]", "values": [
      {"measurement": "inhibition at 10 µM", "setting": "[1]", "result": "< 50", "unit": "%"},
      {"measurement": "inhibition at 10 µM", "setting": "[2]", "result": "< 50", "unit": "%"},
      {"measurement": "MIC", "setting": "[5]", "result": 26, "unit": "µM"},
      {"measurement": "MIC", "setting": "[6]", "result": 26, "unit": "µM"},
      {"measurement": "MIC", "setting": "[7]", "result": 26, "unit": "µM"}
    ]},
    {"smiles": "CC[C@H](C)C(=O)[C@@H](C)C1=CC(=O)C2=C(O[C@]3(C)CC[C@H]4O[C@@H](C(C)(C)O)CC[C@]4(C)[C@H]3[C@@H]2O)C1=O", "note": "[COCHLIOQUINONE C]", "values": [
      {"measurement": "inhibition at 10 µM", "setting": "[1]", "result": "< 50", "unit": "%"},
      {"measurement": "inhibition at 10 µM", "setting": "[2]", "result": "< 50", "unit": "%"},
      {"measurement": "MIC", "setting": "[5]", "result": 26, "unit": "µM"},
      {"measurement": "MIC", "setting": "[6]", "result": 26, "unit": "µM"},
      {"measurement": "MIC", "setting": "[7]", "result": 26, "unit": "µM"}
    ]},
    {"smiles": "C/C=C(\\C)C(=O)[C@@H](C)C1=CC(=O)C2=C(O[C@]3(C)CC[C@H]4O[C@@H](C(C)(C)O)CC[C@]4(C)[C@H]3C2)C1=O", "note": "[COCHLIOQUINONE D]", "values": [
      {"measurement": "IC50", "setting": "[3]", "result": 6.9, "unit": "µM"},
      {"measurement": "IC50", "setting": "[4]", "result": 7.1, "unit": "µM"}
    ]},
    {"smiles": "COc1cccc2c1C(=O)c1c(O)c3c(c(O)c1C2=O)C[C@@](O)(C(=O)CO)C[C@@H]3O[C@H]1C[C@H](N)[C@H](O)[C@H](C)O1", "note": "[DOXORUBICIN HYDROCHLORIDE]", "values": [
      {"measurement": "IC50", "setting": "[3]", "result": 0.3, "unit": "µM"},
      {"measurement": "IC50", "setting": "[4]", "result": 0.3, "unit": "µM"}
    ]},
    {"smiles": "CC[C@H](C)[C@@H](OC(C)=O)[C@@H](C)c1cc(O)c2c(c1O)O[C@]1(C)CC[C@H]3O[C@@H](C(C)(C)O)CC[C@]3(C)[C@H]1C2=O", "note": "[ISOCOCHLIOQUINONE A]", "values": [
      {"measurement": "inhibition at 10 µM", "setting": "[1]", "result": "< 50", "unit": "%"},
      {"measurement": "inhibition at 10 µM", "setting": "[2]", "result": "< 50", "unit": "%"}
    ]},
    {"smiles": "CC[C@H](C)C(=O)[C@@H](C)c1cc(O)c2c(c1O)O[C@]1(C)CC[C@H]3O[C@@H](C(C)(C)O)CC[C@]3(C)[C@H]1C2=O", "note": "[ISOCOCHLIOQUINONE C]", "values": [
      {"measurement": "inhibition at 10 µM", "setting": "[1]", "result": "< 50", "unit": "%"},
      {"measurement": "inhibition at 10 µM", "setting": "[2]", "result": "< 50", "unit": "%"},
      {"measurement": "MIC", "setting": "[5]", "result": 26, "unit": "µM"},
      {"measurement": "MIC", "setting": "[6]", "result": 26, "unit": "µM"},
      {"measurement": "MIC", "setting": "[7]", "result": 26, "unit": "µM"}
    ]},
    {"smiles": "CN(C)[C@@H]1C(O)=C(C(N)=O)C(=O)[C@@]2(O)C(O)=C3C(=O)c4c(O)cccc4[C@@](C)(O)[C@H]3C[C@@H]12", "note": "[TETRACYCLINE]", "values": [
      {"measurement": "MIC", "setting": "[5]", "result": 3.5, "unit": "µM"},
      {"measurement": "MIC", "setting": "[6]", "result": 3.5, "unit": "µM"},
      {"measurement": "MIC", "setting": "[7]", "result": 3.5, "unit": "µM"},
      {"measurement": "MIC", "setting": "[8]", "result": 3.5, "unit": "µM"},
      {"measurement": "MIC", "setting": "[9]", "result": 3.5, "unit": "µM"}
    ]}
  ]
}
